Experimental data reported in patent US7049437B2, “Synthetic process and crystal form of condensed imidazopyridine derivatives” (Shionogi & Co., Ltd., priority 2000, dated 2006).
Counter-ions that a name gives are not always drawn.

Assays:
[1] = Stability to heat (crystals kept sealed at 40° C., relative humidity 75%); format: physicochemical; conditions: relative humidity of 75%, 6 months, sealed glass container, phosphate monohydrate
Procedure: Prism crystals and needle crystals of Compound (Ia) were used for samples. About 25 mg of each crystal was put in a small glass container with polyethylene cap. Containers were capped, sealed with PARAFILM and kept at 40° C., relative humidity of 75% for 6 months.

[2] = Stability to light (fluorescent lamp exposure; appearance and HPLC remaining rate); format: physicochemical; conditions: for appearance / remaining rate (%) / appearance change under light exposure: phosphate monohydrate; for remaining rate (%): HPLC content vs reference kept at −20° C.; for appearance change under light exposure: summary of Table 2
Procedure: In the following Experiments, contents of Compound (I) were determined by HPLC under the following conditions. • Device: WATERS 510, 481, 712 WISP, 741, FD20A or WATERS 510, 486, 712 WISP, 741, FD20A • Column: YMC-packed column AM-302 S-5 120A ODS (4.6 mm φ×150 mm) • Column temperature: room temperature • Mobile phase: methanol/water/TFA=200/800/1 (v/v) • Flow rate: 1.0 ml/min • Wave length: 230 nm • Concentration: 5–85 μg/ml • Injection Volume: 15 μl
After samples were prepared in the same manner of Experiment 1 and sealed, they were kept under 1800 Lux exposure (16 hours exposure per day of a fluorescent lamp, 28800 Lux*hr/day) or under 10000 Lux exposure (continuous exposure of a fluorescent lamp, 240000 Lux*hr/day, average temperature 30±3° C.). As a standard reference sample, each of crystals was put in a sealed container and kept at −20° C. The content of crystals were determined by the absolute calibration curve method using HPLC under the above conditions.

melting point | appearance transition [1] | appearance ([2]; 1800 Lux (16 hours exposure per day), 1 month) | remaining rate (%) ([2]; 1800 Lux, 1 month) | remaining rate (%) ([2]; 1800 Lux, 2 months) | remaining rate (%) ([2]; 1800 Lux, 3 months) | remaining rate (%) ([2]; 1800 Lux, 4 months) | appearance ([2]; 10000 Lux (continuous exposure, 30±3° C.), 1 week) | appearance ([2]; 10000 Lux (continuous exposure, 30±3° C.), 3 weeks) | remaining rate (%) ([2]; 10000 Lux, 1 week) | remaining rate (%) ([2]; 10000 Lux, 2 weeks) | remaining rate (%) ([2]; 10000 Lux, 3 weeks) | remaining rate under light exposure ([2]; after 3 months) | appearance change under light exposure [2] | appearance ([2]; 1800 Lux (16 hours exposure per day), 3 months) | appearance ([2]; 10000 Lux (continuous exposure, 30±3° C.), 2 weeks) | Compound
> 300 °C |  |  |  |  |  |  |  |  |  |  |  |  |  |  |  | c1cc(-c2nc3c4c(ncc3[nH]2)CCOC4)no1 (hydrate or solvate) [Example 1, 2-(3-isoxazolyl)-3,6,7,9-tetrahydroimidazo[4,5-d]pyrano[4,3-b]pyridine]
 | changed its color to pale yellow | ± or + | 98.6% | 98.3% | 96.9% | 97.0% | ± or + | + or ++ | 99.3% | 98.0% | 97.4% | decreased | changed the color to yellow |  |  | c1cc(-c2nc3c4c(ncc3[nH]2)CCOC4)no1 [Needle crystals, 2-(3-isoxazolyl)-3,6,7,9-tetrahydroimidazo[4,5-d]pyrano[4,3-b]pyridine phosphate monohydrate]
 | not observed appearance transition |  | 100.0% | 99.9% | 100.1% | 100.1% |  |  | 99.5% | 99.7% | 99.2% |  | scarcely changed appearance | − or ± | ± or + | c1cc(-c2nc3c4c(ncc3[nH]2)CCOC4)no1 [Prism crystals, 2-(3-isoxazolyl)-3,6,7,9-tetrahydroimidazo[4,5-d]pyrano[4,3-b]pyridine phosphate monohydrate]
234 to 236 °C |  |  |  |  |  |  |  |  |  |  |  |  |  |  |  | c1cc(-c2nc3c4c(ncc3[nH]2)CCOC4)no1 (as salt: phosphate) (hydrate or solvate) [Needle crystals, 2-(3-isoxazolyl)-3,6,7,9-tetrahydroimidazo[4,5-d]pyrano[4,3-b]pyridine phosphate monohydrate]
